According to patent US5015647A, “Method for treating viral infections” (Burroughs Wellcome Co., priority 1989, dated 1991):

How the values were obtained:
HIV = test: anti-HIV activity, in-vitro assay system; format: cell-based; design: key to ED50 (expressed as active (+) or very active (++)): +: active; ++: very active; conditions: for EC50: Human immunodeficiency virus 1, 50% effective dose estimated, read-out: μM ED50; for EC50 / ED50 (expressed as active (+) or very active (++)): in vitro anti-HIV; for ED50 (expressed as active (+) or very active (++)): grade
Protocol: The anti-HIV activity of various compounds was tested using an in-vitro assay system as described in H Mitsuya et al; (Proc Natl. Acad.Sci. USA Vol 82 pp 7096-7100, October 1985)

[1] = target: T1, adenosine (purine) receptors (Cavia porcellus, UniProt P47745); test: guinea pig ileum twitch test, antagonism of purine receptors (agonist 2-chloroadenosine); conditions: slope in parentheses after pA2
T1 construct: Ilea were removed from sacrificed guinea pigs and placed in organ baths; from tissue; host or cells: guinea pig ileum
T1 sequence (P47745 1-326): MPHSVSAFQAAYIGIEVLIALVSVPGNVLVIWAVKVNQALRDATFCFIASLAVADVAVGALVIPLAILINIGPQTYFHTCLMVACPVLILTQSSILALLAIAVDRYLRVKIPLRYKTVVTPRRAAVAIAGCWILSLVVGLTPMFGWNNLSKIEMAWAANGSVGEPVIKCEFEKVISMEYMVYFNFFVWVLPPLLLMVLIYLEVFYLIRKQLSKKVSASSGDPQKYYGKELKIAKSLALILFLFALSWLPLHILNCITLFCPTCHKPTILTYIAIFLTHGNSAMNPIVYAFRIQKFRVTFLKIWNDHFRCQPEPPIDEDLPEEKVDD
Protocol: Accordingly, a representative number of compounds of the present invention were tested for their ability to antagonise the purine receptors using the guinea pig ileum test system.
Ilea were removed from sacrificed guinea pigs and placed in organ baths containing oxygenated Krebs-Henseleit buffer. After equilibration, the ilea were stimulated to contract (twitch contraction) using an electrical field-stimulus of 0.1 Hz, 0.5 ms duration and maximal voltage. Under these conditions, the twitch contraction results from the release of acetylcholine.
Concentration response curves to the purine agonist, 2-chloroadenosine, were determined first in the absence and then in the presence of multiple concentrations of the compounds of the invention. One concentration of each compound was used per tissue. Quantification of purine receptor antagonism was accomplished using the Schild regression technique, i.e. plots of log (dose-ratio-1) vs log compound concentration, and the pA2 determined by regression of the data points to the x-intercept, where log (dose-ratio-1) is zero.

| Structure (SMILES) | EC50 (HIV) | slope (Schild regression) [1] | antiviral / anti-retroviral activity, in words (HIV; against AIDV / retroviruses, statement in words, listed as compound 14) | ED50 (expressed as active (+) or very active (++)) (HIV) |
| --- | --- | --- | --- | --- |
| CC(C)Cn1c(=O)c2nc(-c3ccc(/C=C/C(=O)O)cc3)[nH]c2n(CC(C)C)c1=O [Example 19, (E)-4-(1,2,3,6-tetrahydro-1,3-diisobutyl-2,6-dioxo-9H-purin-8-yl)cinnamic acid] |  | 1.0 |  |  |
| CCCn1c(=O)c2nc(-c3ccc(/C=C/C(=O)O)cc3)[nH]c2n(CCC)c1=O [Example 6, (E)-4-(1,2,3,6-tetrahydro-2,6-dioxo-1,3-dipropyl-9H-purin-8-yl)cinnamic acid] |  | 0.9 |  |  |
| Cn1c(=O)c2[nH]cnc2n(C)c1=O [THEOPHYLLINE, 1,3-dimethylxanthine, reference compound] |  | 1.1 |  |  |
| CCCn1c(=O)c2nc(-c3ccc(/C=C/C(=O)O)cc3)[nH]c2n(Cc2ccccc2)c1=O [Example 26, (E)-4-(3-Benzyl-1,2,3,6-tetrahydro-2,6dioxo-1-propyl-9H-purin-8-yl)cinnamicacid] | 30 µM |  |  | + |
| CCCn1c(=O)n(C)c(=O)c2nc(-c3ccc(/C=C/C(=O)O)cc3)[nH]c21 [Example 11, (E)-4-(1,2,3,6-tetrahydro-1-methyl-2,6-dioxo-3-propyl-9H-purin-8-yl)cinnamic acid] |  | 1.0 |  |  |

Continued, in another order:

| EC50 (HIV) | slope (Schild regression) [1] | Structure (SMILES) | antiviral / anti-retroviral activity, in words (HIV; against AIDV / retroviruses, statement in words, listed as compound 14) | ED50 (expressed as active (+) or very active (++)) (HIV) |
| --- | --- | --- | --- | --- |
| 3 to 15 µM | 0.9 | O=C(O)/C=C/c1ccc(-c2nc3c(=O)n(Cc4ccccc4)c(=O)n(Cc4ccccc4)c3[nH]2)cc1 [Example 15, (E)-4-(1,3-dibenzyl-1,2,3,6-tetrahydro-2,6-dioxo-9H-purin-8yl) cinnamic acid] | especially potent activity against AIDV | ++ |
| 30 µM |  | CCCn1c(=O)n(Cc2ccccc2)c(=O)c2nc(-c3ccc(/C=C/C(=O)O)cc3)[nH]c21 [Example 25, (E)-4-(1-Benzyl-1,2,3,6-tetrahydro-2,6-dioxo-3-propyl-9H-purin-8-yl)cinnamic acid] |  | + |
| 30 µM | 1.0 | CCCCn1c(=O)c2nc(-c3ccc(/C=C/C(=O)O)cc3)[nH]c2n(CCCC)c1=O [Example 14, (E)-4-(1,3-dibutyl-1,2,3,6-tetrahydro-2,6-dioxo-9H-purin-8-yl)cinnamic acid] |  | + |
|  | 0.9 | Cn1c(=O)c2nc(-c3ccc(/C=C/C(=O)O)cc3)[nH]c2n(Cc2ccccc2)c1=O [Example 18, (E)-4-(3-benzyl-1,2,3,6-tetrahydro-1-methyl-2,6-dioxo-9H-purin-8yl) cinnamic acid] |  |  |
